Structures are written as SMILES.

From ChEMBL document CHEMBL1122776, “Synthesis and antitumor activity of some aromatic seleno lactones” (J Med Chem, 1984) come the findings set out here.

Common to all, as to assay type: cell-based
What all share (conditions): read-out: LD50

A short description of data set [1]: In vitro cytotoxic activity against human colon tumor-8r cells in culture and LD50 was reported at the end of incubation period of 48 hours.
The nature of data set [2]: In vitro cytotoxic activity against human colon tumor-8r cells in culture and LD50 was reported at the end of incubation period of 72 hours.
The nature of data set [3]: In vitro cytotoxic activity against of human colon tumor-8r cells in culture and LD50 was reported at the end of incubation period of 24 hours.
Data set [4] in a line: In vitro cytotoxic activity against human colon tumor-8r cells in culture and LD50 was reported at the end of incubation period of 24 hours.
A short description of data set [5]: In vitro cytotoxic activity against of human colon tumor-8r cells in culture and LD50 was reported at the end of incubation period of 72 hours.
The nature of data set [6]: In vitro cytotoxic activity against of human colon tumor-8r cells in culture and LD50 was reported at the end of incubation period of 48 hours.

With `CC(=O)Oc1cccc2c1CC(C[Se]c1ccccc1)C(=O)O2` (centres undefined), the CC50 at 48 h in data set [1] was determined as 240 µM. The CC50 at 72 h in data set [2] is 180 µM. Besides, the CC50 at 24 h in data set [3] was 290 µM.
For the molecule `CCCCCCCCCC(=O)Oc1cccc2c1CC(C[Se]c1ccccc1)C(=O)O2` (centres undefined), the CC50 at 24 h in data set [4] stood at 230 µM. Further, the CC50 at 48 h in data set [1] is 150 µM. The CC50 at 72 h in data set [2] came out at 140 µM.
As for `CCC(=O)Oc1cccc2c1CC(C[Se]c1ccccc1)C(=O)O2` (centres undefined), in data set [4], the CC50 at 24 h was determined as 310 µM. Besides, the CC50 at 72 h in data set [5] was 210 µM. Besides, in data set [6], the CC50 at 48 h was 250 µM.
On to `O=C1Oc2cccc(OC3CCCCO3)c2CC1C[Se]c1ccccc1` (centres undefined), for which, in data set [4], the CC50 at 24 h turned out to be 260 µM. In data set [1], the CC50 at 48 h is 190 µM. The CC50 at 72 h in data set [2] was found to be 150 µM.
Consider `CCCCCCCC(=O)Oc1cccc2c1CC(C[Se]c1ccccc1)C(=O)O2` (centres undefined), for which the CC50 at 24 h in data set [3] is 300 µM. Also, the CC50 at 72 h in data set [5] came to 180 µM. In addition, the CC50 at 48 h in data set [6] came to 230 µM.
As for `O=C1Oc2cccc(O)c2CC1C[Se]c1ccccc1` (centres undefined), the CC50 at 24 h in data set [4] was 330 µM. Also, the CC50 at 48 h in data set [1] was 280 µM. The CC50 at 72 h in data set [2] was 230 µM.
On the same counts, the results for `CCCC(=O)Oc1cccc2c1CC(C[Se]c1ccccc1)C(=O)O2` (centres undefined) are 370 µM, 270 µM and 320 µM.
As for `Sc1ncnc2nc[nH]c12` [MERCAPTOPURINE ANHYDROUS], in data set [4], the CC50 at 24 h worked out at 760 µM. The CC50 at 48 h in data set [1] is 350 µM. The CC50 at 72 h in data set [2] worked out at 280 µM.
